In article PMC7889164, “Efficient expression of a cnidarian peptide-gated ion channel in mammalian cells” (Channels, 2021):
Where two headings read alike, the source gives them in different places.

Legend:
HyNaC2/3/5 [1] = assay: Whole-cell patch clamp, current density, HEK 293 cells expressing HyNaC2/3/5 (native or codon-optimized); assay type: cell-based, Hydra magnipapillata; details: for current density: holding potential −70 mV, mean ± SD
Experimental: (§1) Cells were grown at 37 °C in a humidified atmosphere with 5% CO2. HEK 293 T and COS-7 cells were maintained as an adherent monolayer in Dulbecco’s modified Eagle’s medium supplemented with 10% FBS and 2 mM L-glutamine. Cells were passaged every 2–3 days.
(§2) Holding potential was −70 mV.
(§3) Statistical significance was defined as p < 0.05.

HyNaCs = details: ref [1–3]; cited from earlier work
Description: Electrophysiological properties of HyNaCs have been successfully characterized in Xenopus laevis oocytes [[1–3],[6]]. While expression in oocytes typically results in large current amplitudes of the foreign ion channel, expression in mammalian expression systems is better suited to study, for example, trafficking and regulation of an ion channel. In this study, we, therefore, expressed HyNaC2/3/5 ...

HyNaC2/3/5 [2] = details: Xenopus oocytes, ref [3], cited from earlier work
HyNaC2/3/5 [3] = assay: Whole-cell patch clamp, current density, COS-7 cells expressing HyNaC2/3/5 (native or codon-optimized); assay type: cell-based, Hydra magnipapillata; details: for current density: holding potential −70 mV, mean ± SD
Experimental: as §1, §2, §3

HyNaC2/3/5 [4] = assay: Concentration-response curve (whole-cell patch clamp), codon-optimized HyNaC2/3/5 in HEK cells; assay type: cell-based, Hydra magnipapillata; details: codon-optimized HyNaC2/3/5, HEK cells, −70 mV, pH 7.4, RT, mean ± S.D., n = 8, read-out: apparent affinity (EC50, Hill fit)
Description: as §2
where I is the current, [X] is the peptide concentration, Imin and Imax are the […] currents, respectively, EC50 is the concentration at which 50% of the maximal current is obtained, and H is the Hill coefficient (GraphPad Prism 6.0).

HyNaC2/3/5 [5] = assay: Ca^2+ imaging (Fura-2), HEK 293 cells expressing HyNaC2/3/5; assay type: cell-based, Hydra magnipapillata; details: 1 µM Hydra-RFamide II, Fura-2 340/380 nm, 6 experiments, 2 transfections, ionomycin 1 µM positive control
Experimental: For Ca^2+ imaging, cells were grown on coverslips and transfected as described for electrophysiological recordings. Approximately 48 h after transfection, cells were loaded with 2 µM of Fura-2-AM (Molecular Probes) for 30 min at 37 °C. Subsequently, the coverslips were mounted in a cell chamber and perfused with bath solution. Fura-2 was excited at 340/380 nm and the emission was recorded between 470 and 550 nm on an inverted microscope (IX71, Olympus, Chromaphor) using a sensicam CCD camera (PCO imaging). Acquisition and data analysis were performed using Till Vision real-time imaging software (Till Photonics). At the end of each experiment, a bath solution containing 1 µM ionomycin was used as a positive control.
as §3

[6] = system: HyNaC2/3/5 (HA-tagged or untagged subunits); assay: Whole-cell current density of codon-optimized HyNaC2/3/5 with or without C-terminal HA-tags; details: RFamide II 1 µM, mean ± S.E.M.
Experimental: The tags were separated from the coding sequence by a flexible linker ([sequence]). Fusion was performed in a two-step PCR protocol. For HyNaC2, the forward primer was 5’-[sequence]-3’, and the reverse primers were 5’-[sequence]-3’ and 5’-[sequence]-3’. For HyNaC3, the forward primer was 5’-[sequence]-3’, and the reverse primers were 5’-[sequence]-3’ and 5’-[sequence]-3’. And for HyNaC5, the forward primer was 5’-[sequence]-3’, and the reverse primers were 5’-[sequence]-3’ and 5’-[sequence]-3’. Constructs were cloned into pcDNA3.1(-) using BamHI and BbsI (HyNaC2) or BamHI and KpnI (HyNaC3 and HyNaC5). The sequences of the constructs were confirmed by sequencing of the full coding sequence (Eurofins Genomics).
Codon optimization of HyNaC2, HyNaC3, and HyNaC5 to Homo sapiens codon usage preferences was performed by BioCat GmbH (Heidelberg, Germany). The cDNA was synthesized with a C-terminal flexible linker ([sequence]) followed by three HA-tags and cloned into pcDNA3.1(-) using the same restriction sites as above. To create the codon-optimized constructs without linkers and tags, PCR was performed to insert an additional restriction site of either BbsI (HyNaC2) or KpnI (HyNaC3 and HyNaC5) between the end of the HyNaC coding sequence and the start of the linker. The resulting constructs were digested with the respective restriction enzymes and cloned into pcDNA3.1(-). The successful removal of linkers and tags was confirmed by sequencing (Eurofins Genomics).
Cells were transfected with 0.6 µg each of HyNaC2, HyNaC3, and HyNaC5 plus 0.2 µg of GFP per 35 mm dish using calcium phosphate transfection. Approximately 48 h after transfection, the culture dish with attached cells was mounted on the stage of an inverted phase-contrast microscope (IX71, Olympus). The recording chamber was perfused with the following bath solution (in mM): NaCl 128, KCl 5.4, HEPES 10, glucose 5.5, MgCl2 1, CaCl2 2; pH was adjusted with NaOH to 7.4 at RT (22–25 °C).
Patch-clamp experiments were performed in the whole-cell configuration, using an Axon-200B amplifier (Molecular Devices; San Jose, CA, USA) and an Axon Digidata 1440 A acquisition system controlled by the Clampex 10.0 software (Molecular Devices). Signals were low pass filtered at 1 kHz and digitized at 4 kHz. Micropipettes (4–6 MΩ) were prepared from borosilicate glass capillaries with a micropipette puller (DMZ-Universal Electrode Puller; Zeitz Instruments, Martinsried, Germany) and filled with an intracellular solution containing (in mM): NaCl 10, KCl 121, HEPES 10, EGTA 5, MgCl2 2. Holding potential was −70 mV. Capacitance and series resistances were compensated electronically at 80% and digital data were stored in a compatible PC for off-line analysis using Clampfit 10.0 software (Molecular Devices).
Electrophysiological data were analyzed offline using Clampfit 10.0 (Molecular Devices). Current density was obtained by dividing the maximal current amplitude (pA) by cell capacitance (pF). Data are presented as mean ± S.D., except for data in Figure 5, which are shown as mean ± S.E.M. The concentration–response curve for RFamide-II and codon-optimized HyNaCs was fitted to a Hill function: I=Imin+ Imax−Imin/1 + X/EC50^H
Statistical analysis was done using an unpaired t-test to compare two conditions and a one-way ANOVA (GraphPad Prism 6.0) for more than two conditions. Statistical significance was defined as p < 0.05.

pQWLGGRFamide [Hydra-RFamide I]
type of current elicited (HyNaC2/3/5 [1]; native HyNaC2/3/5, HEK cells, 10 µM RFamide I): sustained inward currents
current density (HyNaC2/3/5 [1]; native HyNaC2/3/5, HEK cells, 10 µM RFamide I, pH 7.4, RT (22–25 °C), n = 12): 42 ± 10 pA/pF
activation of HyNaCs (HyNaCs): directly activated
response in oocytes (HyNaC2/3/5 [2]; 10 µM Hydra-RFamide I): maximal response
current amplitude compared with Hydra-RFamide II (HyNaC2/3/5 [3]; codon-optimized HyNaC2/3/5, COS-7 cells, text: 1 µM Hydra-RFamide I (Figure 3B legend: 10 µM), n = 10, p = 0.87 (unpaired t-test)): comparable current amplitudes
current density (HyNaC2/3/5 [3]; native HyNaC2/3/5, COS-7 cells, 10 µM RFamide I, pH 7.4, RT (22–25 °C), n = 12, p < 0.001 vs HEK): 5 ± 2 pA/pF

pQWFNGRFamide [Hydra-RFamide II, neuropeptide of the Hydra nervous system]
type of current elicited (HyNaC2/3/5 [1]; codon-optimized HyNaC2/3/5, HEK cells, 1 µM Hydra-RFamide II): sustained inward currents
current density (HyNaC2/3/5 [1]; codon-optimized HyNaC2/3/5, HEK cells, 1 µM Hydra-RFamide II, pH 7.4, RT, n = 15, p < 0.001 vs native): 113 ± 9 pA/pF
activation of HyNaCs (HyNaCs): directly activated
EC50 (HyNaC2/3/5 [4]): 140 ± 30 nM
response in oocytes (HyNaC2/3/5 [2]; 1 µM Hydra-RFamide II): maximal response
intracellular Ca^2+ signals (HyNaC2/3/5 [5]; HEK 293 cells expressing codon-optimized HyNaC2/3/5, n = 48 cells, p < 0.001 vs native): robust intracellular Ca^2+ signals
intracellular Ca^2+ increase (HyNaC2/3/5 [5]; HEK 293 cells expressing native HyNaC2/3/5, n = 36 cells): hardly increased intracellular Ca^2+ above background
current density ([6]; HyNaC2 carried the HA-tag, n = 7–8, p < 0.05 vs untagged): 49 ± 9 pA/pF
current density ([6]; HyNaC3 carried the HA-tag, n = 7–8, p < 0.05 vs untagged): 57 ± 8 pA/pF
current density ([6]; HyNaC5 carried the HA-tag, n = 7–8, p < 0.05 vs untagged): 50 ± 9 pA/pF
current density ([6]; all subunits carrying an HA-tag, n = 7, p < 0.0001): 22 ± 7 pA/pF
current density ([6]; no subunit carried the tag, n = 7–8): 84 ± 9 pA/pF
type of current elicited (HyNaC2/3/5 [3]; codon-optimized HyNaC2/3/5, COS-7 cells, 1 µM Hydra-RFamide II): sustained inward currents
current density (HyNaC2/3/5 [3]; codon-optimized HyNaC2/3/5, COS-7 cells, 1 µM Hydra-RFamide II, pH 7.4, RT, n = 10, p < 0.001 vs native): 17 ± 9 pA/pF
current amplitude compared with Hydra-RFamide I (HyNaC2/3/5 [3]; codon-optimized HyNaC2/3/5, COS-7 cells, text: 10 µM Hydra-RFamide II (Figure 3B legend: 1 µM), n = 10, p = 0.87 (unpaired t-test)): comparable current amplitudes
current density (HyNaC2/3/5 [3]; native HyNaC2/3/5, COS-7 cells, text: 1 µM Hydra-RFamide II (Figure 3 legend: native trace 10 µM RFamide I), n = 12): 2 ± 3 pA/pF
